In EP4782434A1, “N-SULFONYL CARBOXAMIDE COMPOUND, AND PREPARATION METHOD THEREFOR AND USE THEREOF” (Nutshell Therapeutics (Shanghai) Co., Ltd., priority 2023, dated 2025):

Tests used:
Polθ ATPase = biological target: T1, Polθ ATPase (Homo sapiens, UniProt O75417); assay: Polθ ATPase activity assay (ADP-Glo Kinase Assay kit); format: biochemical; conditions: truncated POLQ-N protein (aa 1-894) 1 nM, 50 nM ssDNA, 50 µM ATP
T1 construct: purified truncated POLQ-N protein (aa 1-894, N-terminal 6-His tag); 6-His (N)
Experimental: The inhibitory efficiency of the compounds of formula (I) against Polθ ATPase activity was determined using the ADP-Glo Kinase Assay kit (Promega, V9101). […] The starting (final) concentration was 100 nM, followed by a 3-fold serial dilution for a total of 10 concentration points in duplicate (n=2). 5 μL of purified […], N-terminal 6-His tag) was added to each well. After centrifugation at 1000 rpm for 1 minute, the plate was incubated at 25°C for 10 minutes. 5 μL of substrate reaction solution (containing ATP & ssDNA) was added to each well, and the reaction was carried out at 25°C for 60 minutes. 5 μL of ADP-Glo Reagent was added to each well. After centrifugation at 1000 rpm for 1 minute, the plate was incubated at 25°C for 40 minutes. 10 μL of detection solution was added to each well. After centrifugation at 1000 rpm for 1 minute, the plate was incubated at 25°C for 40 minutes. Luminescence signals were recorded using a microplate reader (BMG, PHERAstar FSX). The final reaction system contained 1 nM of POLQ-N enzyme; 50 nM of ssDNA ([NT]); 50 μM of ATP; and 1% DMSO. The inhibition percentage (%) of the compound at each concentration was calculated using the RFU values normalized against the control wells within each assay plate. Table 1: Inhibitory activity of compounds against Polθ ATPase

[1] = test system: Theta-mediated end joining (TMEJ) process in HEK293T cells; assay: TMEJ reporter assay (NanoGlo luciferase); format: cell-based; conditions: Homo sapiens, HEK-293T, HEK293T cells electroporated with TMEJ substrate, 24 hours
Experimental: The inhibitory effect of the compounds on the Theta-mediated end joining (TMEJ) process was evaluated.
(1) HEK293T cells were cultured in DMEM supplemented with 10% heat-inactivated fetal bovine serum (FBS) and 1% penicillin-streptomycin (PS). (2) Prior to startup, the Neon transfection system was disinfected, and E2 and R buffers were equilibrated to room temperature. (3) Culture medium without antibiotics was pre-warmed. (4) Cells in the flask reaching 80-90% confluency were trypsinized, neutralized with culture medium, centrifuged, and counted. (5) For transfection using a 100 µL electroporation tip, 2 × 10^6 cells were taken, washed once with DPBS (without Mg^2+ and Ca^2+), centrifuged at 1000 rpm for 5 min, and the supernatant was discarded. The number of cells and volume may be increased as required. (6) The Neon system was set up; a Neon tube was inserted into the Neon pipette and E2 buffer was added. (7) 10 µg of TMEJ substrate was added to 100 µL of R solution; the volume may be increased as required. (8) Cells were resuspended in DNA buffer, and electroporation was initiated according to the following parameters:
(9) The cells were loaded into antibiotic-free culture medium and mixed gently. (10) Steps (8)-(9) were repeated as necessary, and cells were seeded into 384-well plates at a density of 40,000 cells/well in 40 µL of culture medium. (11) The plates were incubated in a humidified CO2 incubator at 37°C for 24 hours. (12) NanoGlo reagent was warmed to room temperature, and NanoGlo buffer was mixed with the substrate at a ratio of 50:1. (13) The cell culture plates were equilibrated at room temperature for 10 minutes. (14) 40 µL of NanoGlo substrate buffer was added to each well, followed by shaking at 300 rpm for 3 minutes protected from light. (15) Signals were read via a BMG PHERAstar FSX.

DLD-1 BRCA2-/- cells = assay: DLD-1 BRCA2-/- cell proliferation assay (CellTiter-Glo, 10 days incubation); format: cell-based; conditions: Homo sapiens, 240 h, DLD-1 BRCA2-/- cell line, total incubation period of 10 days, read-out: DLD1 BRCA2^-/- IC50
Source text: The anti-proliferative effect of the compounds on the human colorectal adenocarcinoma cell line DLD-1 BRCA2^-/- method.
• DLD-1 (purchased from ATCC, Cat. No.: CCL-221, Batch No.: 70033255); • RPMI1640 (purchased from Invitrogen, Cat. No.: 11875-085); • 0.25% Trypsin-EDTA (purchased from Invitrogen, Cat. No.: 25200-072); • Penicillin-Streptomycin solution (purchased from Hyclone, Cat. No.: SV30010); • FBS (purchased from BI, Cat. No.: 04-002-1A); • DMSO (purchased from Sigma, Cat. No.: D4540-1L); • 96-well plate (purchased from Corning, Cat. No.: CLS3903); • CellTiter-Glo reagent (purchased from Promega, Cat. No.: G7558).
The anti-proliferative effect of the compounds on a human colorectal adenocarcinoma cell line was evaluated using an ATP quantification method, wherein the measured activity correlates well with the number of viable cells. The genetically edited cell line DLD-1 BRCA2^-/- was cultured in RPMI 1640 medium (Invitrogen, 11875-085) supplemented with 10% (v/v) fetal bovine serum (BI, 04-002-1A). The cell line was cultured according to the standard instructions of the American Type Culture Collection (ATCC) and identified via short tandem repeat (STR) genotyping.
In the proliferation assay, cells were harvested and resuspended in cell culture medium. Cell density was determined using a cell counter. An appropriate volume of cell suspension was aspirated from the centrifuge tube to prepare a plating working solution (150 cells/100 µL for the DLD-1 BRCA2^-/- cell line). 100 µL of the cell suspension was seeded into each well of a 96-well plate (Corning, 3603) and incubated overnight in an incubator. The diluted test compound solutions were added to the wells. On the fourth and seventh days of compound incubation, the medium was replaced with fresh culture medium, and the compounds were re-administered, for a total incubation period of 10 days. Following incubation, the cell culture plates were removed and equilibrated to room temperature. 100 µL of CellTiter-Glo (Promega, G7558) was added to each well, and the plate was incubated at room temperature for 30 minutes. Data were read using a microplate reader (PerkinElmer, Enspire) in 96-well luminescence mode. Data analysis, curve fitting, and reporting were performed using the dose-response one-site 205 model of IDBS XL fit. Table 2: Proliferation inhibitory activity of compounds against DLD-1 BRCA2-/- cells

T1 sequence (O75417 1-894): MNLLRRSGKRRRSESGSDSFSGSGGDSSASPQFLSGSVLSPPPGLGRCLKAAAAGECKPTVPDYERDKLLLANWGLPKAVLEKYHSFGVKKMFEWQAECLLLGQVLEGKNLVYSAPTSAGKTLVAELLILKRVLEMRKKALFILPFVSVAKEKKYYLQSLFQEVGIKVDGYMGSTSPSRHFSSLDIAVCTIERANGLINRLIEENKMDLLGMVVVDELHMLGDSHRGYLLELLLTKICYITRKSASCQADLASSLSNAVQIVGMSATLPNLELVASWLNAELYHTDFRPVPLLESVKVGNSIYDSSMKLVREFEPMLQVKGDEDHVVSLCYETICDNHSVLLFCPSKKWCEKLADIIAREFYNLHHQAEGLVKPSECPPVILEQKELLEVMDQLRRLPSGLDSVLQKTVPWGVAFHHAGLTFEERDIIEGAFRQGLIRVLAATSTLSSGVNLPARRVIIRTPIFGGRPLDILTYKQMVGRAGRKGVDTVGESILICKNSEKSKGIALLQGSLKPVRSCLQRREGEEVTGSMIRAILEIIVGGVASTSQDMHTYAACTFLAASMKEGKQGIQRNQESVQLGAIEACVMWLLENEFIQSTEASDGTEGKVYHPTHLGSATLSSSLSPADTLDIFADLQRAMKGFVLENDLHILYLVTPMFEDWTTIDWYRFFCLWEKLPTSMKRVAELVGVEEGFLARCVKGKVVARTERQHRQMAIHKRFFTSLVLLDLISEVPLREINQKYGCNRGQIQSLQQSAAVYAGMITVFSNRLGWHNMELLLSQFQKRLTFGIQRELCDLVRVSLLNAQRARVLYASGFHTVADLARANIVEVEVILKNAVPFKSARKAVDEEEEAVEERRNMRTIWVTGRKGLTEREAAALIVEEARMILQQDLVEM

SMILES: COc1cnc(Cl)cc1-c1cc(C)ncc1C(=O)Nc1nnc(OC[C@H]2COCCO2)s1 [Ref. 1, reference compound]
- IC50 (Polθ ATPase; class symbols): 2 to 10 nM
- IC50 (Polθ ATPase; specific values): 2.2 nM
- IC50 [1]: 5 nM
- IC50 (DLD-1 BRCA2-/- cells): 21 nM

SMILES: [2H]C([2H])([2H])O[C@@H](C)c1ccc(CS(=O)(=O)NC(=O)c2ccc(C([2H])([2H])[2H])cc2-c2cc(C(F)F)ncc2OC)cc1 [cpd-16, (S)-2-(2-(Difluoromethyl)-5-methoxypyridin-4-yl)-N-((4-(1-(methoxy-d3)ethyl)benzyl)sulfonyl)-4-(methyl-d3)benzamide]
- IC50 (Polθ ATPase; class symbols): ≤ 2 nM
- IC50 (Polθ ATPase; specific values): 0.39 nM
- IC50 [1]: 2 nM
- IC50 (DLD-1 BRCA2-/- cells): 24 nM

SMILES: [2H]C([2H])([2H])O[C@@H](C)c1ccc(CS(=O)(=O)NC(=O)c2ccc(C([2H])([2H])[2H])cc2-c2cc(Cl)ncc2OC)cc1 [cpd-17, (S)-2-(2-Chloro-5-methoxypyridin-4-yl)-N-((4-(1-(methoxy-d3)ethyl)benzyl)sulfonyl)-4-(methyl-d3)benzamide]
- IC50 (Polθ ATPase; class symbols): ≤ 2 nM
- IC50 (Polθ ATPase; specific values): 1.4 nM
- IC50 [1]: 1.8 nM
- IC50 (DLD-1 BRCA2-/- cells): 16 nM
